{"source": "patent US8815585B2", "about": "“Automated method and apparatus for embryonic stem cell culture” (Cellular Dynamics International, Inc., priority 2007, dated 2014)", "key": {"[1]": {"tested_on": "HES cells", "assay": "Survival of HES cells after trypsin treatment, individualized and seeded in TeSR medium", "format": "cell-based, human", "conditions": "0.1% trypsin; seeding onto Matrigel coated plates in TeSR medium", "excerpt": "The inventors utilized the system described in Example 1 and developed procedures for passaging of HES cells that were based on simple liquid handling protocols. Recent innovations in splitting techniques allowed for efficient automation of this otherwise demanding manual procedure. Since HES cells require cell-cell contacts for survival in TeSR media, they needed to be seeded in clumps which required scraping of attached cells, a procedure which would be very hard to automate.\nFor automated passaging, the following procedure was developed: After retrieval of the mother plate from the incubator, the wash tool removes the spent media as described in aim 1. The 8-channel 200 μl pipetting tool MP200 is used to add […] of trypsin (0.1%). […] The cells are washed off the plate surface and mixed using the 8-channel MP200 tool by repetitive dispensing and aspiration. Cells are then dispensed to the daughter plates using the MP200 tool. The cells are then seeded 1 to 32 onto precoated Matrigel plates loaded from the stacker to the Biomek2000. […] The total surface area of the initially used Omnitray turned out to be too large for the throughput of the system at the stage of the next split once the inventors tested methods for passaging HES cells in aim 2. […]"}, "[2]": {"tested_on": "HES cells", "assay": "Seeding and colony formation of individualized HES cells in 96-well plates", "format": "cell-based, human", "excerpt": "For this purpose however the inventors plated 16,000 cells per well, which is a 5-fold higher seeding density, than in the regular propagation and maintenance of undifferentiated HES cells with the automated procedure."}, "[3]": {"tested_on": "HES cells", "conditions": "Watanabe et al. Nat Biotech (2007); cited from earlier work"}}, "note": "“Also recorded” adds a separate entry of the source.", "data": [{"smiles": "Cc1cncc2cccc(S(=O)(=O)N3CCCNCC3C)c12", "note": "(stereo in doubt) [H-1152, (S)-(+)-2-Methyl-1-[(4-methyl-5-isoquinolinyl)sulfonyl]homopiperazine]", "values": [{"measurement": "survival of HES cells after trypsin treatment", "setting": "[1]", "result": "allow the survival of HES cells after trypsin treatment"}, {"measurement": "seeding of individualized HES cells in 96-well plates", "setting": "[2]; 96-well plates", "result": "allows for very efficient seeding of individualized HES cells in 96-well plates; also recorded: allows for very efficient seeding of individualized human ES cells in 96-well plates"}, {"measurement": "colony formation of HES cells from individualized cells", "setting": "[2]; TeSR1 media", "result": "actively increased colony formation"}]}, {"smiles": "O=S(=O)(c1cccc2cnccc12)N1CCNCC1", "note": "[HA-100]", "values": [{"measurement": "survival of HES cells after trypsin treatment", "setting": "[1]", "result": "allow the survival of HES cells after trypsin treatment"}, {"measurement": "ability to maintain HES cell growth", "setting": "[3]", "result": "supports the ability of HA-100 to maintain HES cell growth"}]}]}
